Test: xn = mol fraction of the nth substance listed

CCCC[n+]1ccn(C)c1.O=S(=O)([N-]S(=O)(=O)C(F)(F)F)C(F)(F)F + CN(C)c1ccccc1
100 kPa, x2 = 0
Conditions | viscosity [mPa·s]
288.15 K | 78.4
293.15 K | 61.5
298.15 K | 49.1
303.15 K | 39.9
308.15 K | 33.2
313.15 K | 27.7
318.15 K | 23.5
323.15 K | 20.13
328.15 K | 17.39
333.15 K | 15.2

CCCC[n+]1cccc(C)c1.O=S(=O)([N-]S(=O)(=O)C(F)(F)F)C(F)(F)F + CO
298.15 K, 101.3 kPa
Conditions | electrical conductivity [S/m]
x2 = 0.1004 | 0.338
x2 = 0.7793 | 1.68
x2 = 0.9417 | 2.04
x2 = 0.9589 | 1.83

CCCC[n+]1ccn(C)c1.O=S(=O)([N-]S(=O)(=O)C(F)(F)F)C(F)(F)F + CO
296.35 K, 100 kPa, frequency 0.01 MHz
Conditions | electrical conductivity [S/m]
x1 = 0.008978 | 1.5
x1 = 0.01434 | 2.51
x1 = 0.02356 | 3.1
x1 = 0.04259 | 4.63
x1 = 0.08668 | 4.31

Conditions | electrical conductivity [S/m] | viscosity [mPa·s]
298 K, 100 kPa, x1 = 0.05 | – | 1.017
298 K, 100 kPa, x1 = 0.1927 | – | 3.181
298 K, 100 kPa, x1 = 0.2796 | – | 5.166
298 K, 100 kPa, x1 = 0.6962 | – | 23.01
298 K, 100 kPa, x1 = 1 | – | 49.7
298 K, 101 kPa, x2 = 0.3686 | 0.596 | –
298 K, 101 kPa, x2 = 0.4819 | – | 13.83
298 K, 101 kPa, x2 = 0.7921 | 2.43 | –
298.15 K, 100 kPa, x2 = 0.0986 | – | 42.43
298.15 K, 100 kPa, x2 = 0.7056 | – | 8.01
303.15 K, 100 kPa, x2 = 0 | – | 40.54
303.15 K, 100 kPa, x2 = 0.0986 | – | 34.9
303.15 K, 100 kPa, x2 = 0.4004 | – | 18.48
318.15 K, 100 kPa, x2 = 0.0986 | – | 20.96
318.15 K, 100 kPa, x2 = 0.295 | – | 14.8
318.15 K, 100 kPa, x2 = 0.4923 | – | 9.36
318.15 K, 100 kPa, x2 = 0.7056 | – | 4.52
323.15 K, 100 kPa, x2 = 0.7056 | – | 4.24
323.15 K, 100 kPa, x2 = 0.8978 | – | 1.12

CCCC[n+]1ccn(C)c1.O=S(=O)([N-]S(=O)(=O)C(F)(F)F)C(F)(F)F + CS(C)=O
100 kPa, x2 = 0
Conditions | viscosity [mPa·s]
303.15 K | 40.54
318.15 K | 23.75

CC#N + C[N+](C)(C)CCC[N+]1(C)CCCCC1.N#C[N-]C#N.N#C[N-]C#N
100 kPa, x2 = 0
Conditions | viscosity [mPa·s]
288.15 K | 0.382
298.15 K | 0.348
303.15 K | 0.333
333.15 K | 0.266

CC#N + C[N+](C)(C)CCC[n+]1ccccc1.N#C[N-]C#N.N#C[N-]C#N
100 kPa, x2 = 0
Conditions | viscosity [mPa·s]
328.15 K | 0.275
333.15 K | 0.266

CCCC[n+]1ccccc1.O=S(=O)([N-]S(=O)(=O)C(F)(F)F)C(F)(F)F + Cc1ccccc1
100 kPa
Conditions | viscosity [mPa·s]
293.15 K, x2 = 0.3972 | 22.63
293.15 K, x2 = 0.6068 | 10
298.15 K, x2 = 0 | 52.9
298.15 K, x2 = 0.5025 | 13.64
303.15 K, x2 = 0.2939 | 21.68
308.15 K, x2 = 0.3972 | 14.21
308.15 K, x2 = 0.5025 | 10.54
313.15 K, x2 = 0.3972 | 12.3
313.15 K, x2 = 0.6068 | 6.62

CCCC[n+]1ccn(C)c1.F[P-](F)(F)(F)(F)F + Cc1ccccc1
101 kPa
Conditions | viscosity [mPa·s]
298.15 K, x2 = 0.05 | 172.6
300.65 K, x2 = 0.2 | 74.9
300.65 K, x2 = 0.4 | 31.2
303.15 K, x2 = 0.1 | 73.3
303.15 K, x2 = 0.3 | 39.5
305.65 K, x2 = 0.3 | 32.5
308.15 K, x2 = 0.3 | 27.6
310.65 K, x2 = 0.1 | 39.8
313.15 K, x2 = 0.4 | 14.12
318.15 K, x2 = 0.3 | 17.56
320.65 K, x2 = 0.3 | 16.21
320.65 K, x2 = 0.4 | 11.32
328.15 K, x2 = 0.05 | 27.7
330.65 K, x2 = 0.05 | 26
335.65 K, x2 = 0.4 | 8.8
338.15 K, x2 = 0.05 | 22.02

CCCCCCCC/C=C\CCCCCCCC(=O)O + Cc1ccccc1 + CC[N+](CC)(CC)CC.[Cl-]
298.2 K, 100 kPa
Conditions | viscosity [mPa·s]
x2 = 0, x3 = 0.25 | 202
x2 = 0.2, x3 = 0.2 | 39
x2 = 0.4, x3 = 0.149 | 10.8
x2 = 0.6, x3 = 0.1 | 3.19
x2 = 0.8, x3 = 0.05 | 0.91

Source: the CheMixHub ionic liquid set
